Columns and labels:
P2X7R [1] = molecular target: T1, P2X7R (Mus musculus, UniProt Q9Z1M0); test: Calcium influx into HT-22 cells (Oregon green AM ester); assay type: cell-based; conditions: 100 mM oATP for 1 hour before BzATP
T1 construct: endogenous in cells; host or cells: HT-22 (immortalised mouse hippocampal cell line)
T1 sequence (Q9Z1M0 1-595): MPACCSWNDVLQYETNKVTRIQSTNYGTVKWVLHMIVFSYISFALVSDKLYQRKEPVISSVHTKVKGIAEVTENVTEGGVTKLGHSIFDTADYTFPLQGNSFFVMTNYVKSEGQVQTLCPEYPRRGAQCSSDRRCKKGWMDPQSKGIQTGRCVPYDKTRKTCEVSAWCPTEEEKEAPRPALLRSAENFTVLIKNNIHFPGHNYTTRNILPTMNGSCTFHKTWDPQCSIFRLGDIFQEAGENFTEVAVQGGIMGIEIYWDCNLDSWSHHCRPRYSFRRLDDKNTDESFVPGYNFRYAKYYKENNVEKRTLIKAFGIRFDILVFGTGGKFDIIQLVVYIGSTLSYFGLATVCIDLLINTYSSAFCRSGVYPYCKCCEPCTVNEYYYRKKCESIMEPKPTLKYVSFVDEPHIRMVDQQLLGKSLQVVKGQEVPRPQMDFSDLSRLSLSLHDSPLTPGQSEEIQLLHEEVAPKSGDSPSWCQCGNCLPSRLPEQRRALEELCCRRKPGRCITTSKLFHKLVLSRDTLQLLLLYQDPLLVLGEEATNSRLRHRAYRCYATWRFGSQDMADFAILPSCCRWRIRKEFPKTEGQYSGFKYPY
Excerpt: Since P2X7R is an ATP-gated ion channel which allows the entry of calcium and sodium ions into cells, a method for identifying P2X7R agonist was established by monitoring calcium influx into HT-22 cells. […] Calcium movement into the cells was visualised under a fluorescent microscope with a fluorescein filter (wavelength 492/517 nm). Oregon green AM ester is a fluorescent dye that binds to intracellular calcium.
Activation of P2X7R by the agonist was inhibited by oATP (FIG. 18) as illustrated by the absence of green fluorescence in the cells.

P2X7R [2] = molecular target: T1, P2X7R; test: Entry of ethidium bromide into HT-22 cells; assay type: cell-based; conditions: pre-incubation 60 minutes with 100 μM o-ATP before agonist and ethidium bromide
Excerpt: Yet another method of measuring P2X7R activity involves the entry of ethidium bromide into P2X7R expressing cells. Activation of P2X7R by an agonist allows the entry of ethidium bromide which binds nuclear DNA and emits a fluorescence signal. Alternatively, the propidium dye YOPRO-1 can be substituted for ethidium bromide. An increase in fluorescence can be used as a measure of P2X7 receptor activation. Therefore, the assay can be used to test and quantify the effect of an agent or compound with agonist properties on P2X7R. In the present example, 10^3 HT-22 cells were seeded per well in a 96-well flat bottom microtitre plates and incubated at 37° C./5% CO2 in DMEM medium containing 10% FCS until the cells attached to the culture surface. […] The number of fluorescent cells which have integrated the ethidium bromide to the DNA can then be counted using a fluorescent microscope (Zeiss, Germany). […] Alternatively, ethidium bromide fluorescence can be measured using a Perkin-Elmer fluorescent plate reader (excitation 520 nm, emission 595 nm, slit widths: Ex 15 nm, Em 20 nm). From the readings obtained, a pIC50 figure can be calculated for each candidate agent or compound. […] The specificity of an agonist for P2X7R can be evaluated by pre-incubation of the cells for 60 minutes with 100 μM o-ATP before adding the agonist and ethidium bromide dye.

DBA/201a mice = test: Porsolt's forced swim test after intrahippocampal P2X7R antagonists; assay type: in vivo, mouse; conditions: 100 nM KN-62 or 10 μM oATP, 1 μl each side, dentate gyrus, 24 hours after injection
Excerpt: In the present example, the P2X7R antagonists were directly injected into the dentate gyrus region of the hippocampus. Briefly, three months old male mice were bilaterally implanted with guide cannulae (23 gauge, length 8 mm) by means of a stereotactic instrument (David Kopf Instruments). The coordinates, in relation to bregma, were −1.5 mm posterior, ±1.0 mm lateral, and −0.8 mm ventral. Mice were allowed to recover for 10 to 13 days after surgery. Following this recovery period, mice were injected with 1 μl vehicle solution (0.01% DMSO, Sigma), or 100 nM KN-62 (Sigma, prepared in 0.01% DMSO), or 10 μM oATP (Sigma, prepared in PBS) in each side of the brain over a period of 60 seconds. All injections were performed using a 9 mm-31 gauge needle inserted into the guide cannulae and connected via tubing to a 10 μl Hamilton syringe.
The behaviour of individual mice was assessed using the Porsolt's forced swim test 24 hours after injection of vehicle solution, KN-62, or oATP. A pre-exposure of 5 minutes to the test was performed 15-17 minutes after administration of vehicle, KN-62, or oATP. A description of the Porsolt's forced swim test is given in example 9. […] Observed results were verified statistically using one-way MANOVA test.

mice = test: Open field test (locomotor activity) after oATP; assay type: in vivo, mouse; conditions: 10 μM or 50 μM oATP, 15 minutes after injection, 30 minutes
Procedure: Locomotor activity in mice treated with control vehicle solution, 10 μM oATP, or 50 μM oATP was assessed 15 minutes after injection by placing individual animal in a dark-grey wooden box (30×30×40 cm). Locomotor activity was monitored for a period of 30 minutes using a video camera. Overall distance travelled by the animals during the testing period was then analysed by means of VideoMot2 computer software (TSE GmbH, Bad Homburg).

SMILES: Nc1ncnc2c1ncn2[C@@H](C=O)O[C@@H](C=O)COP(=O)(O)OP(=O)(O)OP(=O)(O)O [oATP, Oxidized ATP]
- activation of P2X7R by the agonist (calcium influx) after antagonist pre-treatment (P2X7R [1]): inhibited
- number of fluorescent cells after antagonist pre-incubation (P2X7R [2]): reduction in the number of fluorescent cells
- active escape attempts (time, frequency, latency of struggling) (DBA/201a mice): no changes
- passive behaviour (time, frequency, latency of floating) (DBA/201a mice): no changes
- locomotor activity (overall distance travelled) (mice): No difference in locomotor activity

From patent US20060110385A1, “Means and methods for diagnosing and treating affective disorders” (Affectis Pharmaceuticals AG, priority 2003, published 2006)
